Values joined by “and” are separate entries in the source; they are usually repeats but may differ in a detail not shown here. Identical values can stand only once.
Assay: Stability study: related substances (% area) after storage
Assay type: physicochemical
Protocol: A stability study was initiated for Formulation 1A and Formulation 2A. The capsules were packaged in 30 cc HDPE bottles with induction sealed PP caps and the bottles were stored under ICH stability conditions in humidity chambers at 25° C./60% RH and under accelerated conditions, 40° C./75% RH. The capsules were stored at 4-8° C. directly after preparation until they were placed into the stability chambers. […]
Another stability study was initiated for Formulation 5A. The capsules were packaged as per Formulation 1A and Formulation 2A and store under the same conditions.
An Amphotericin B/TPGS/Peceol/Gelucire 44/14 semi-solid lipid based formulation in hard shell capsule was prepared (Formulation 5A) and stored under ICH controlled stability conditions. […] The dissolution profile however decreased (Table 23 and FIG. 9). As indicated before, this behavior could be a result a recrystallization or aggregation of the AmpB.

C[C@@H]1[C@H](O)[C@@H](C)/C=C/C=C/C=C/C=C/C=C/C=C/C=C/[C@H](O[C@@H]2O[C@H](C)[C@@H](O)[C@H](N)[C@@H]2O)C[C@@H]2O[C@](O)(C[C@@H](O)C[C@@H](O)[C@H](O)CC[C@@H](O)C[C@@H](O)CC(=O)O[C@H]1C)C[C@H](O)[C@H]2C(=O)O [AmpB (Corealis lot drawing 729)]
Related Substances, Total % area (T = 0): 7.67 % area | Related Substances, individual peak % area (T = 0, individual peaks ≥ 0.10%, RRT given): 0.54 % area and 0.12 % area (2×) and 0.32 % area and 0.33 % area and 0.24 % area and 0.60 % area and 0.31 % area and 0.65 % area and 0.69 % area and 0.30 % area and 1.00 % area and 1.47 % area and 0.82 % area and 0.14 % area | Related Substances, Total % area (T = 1 month 40° C./75% RH): 7.71 % area | Related Substances, individual peak % area (T = 1 month 40° C./75% RH, individual peaks, RRT): 0.79 % area and 0.13 % area and 0.57 % area and 0.16 % area and 0.32 % area and 0.33 % area and 0.24 % area and 0.59 % area and 0.31 % area (2×) and 0.11 % area and 0.62 % area and 0.69 % area and 1.00 % area and 1.52 % area | Related Substances, Total % area (T = 3 months 25° C./60% RH): 7.38 % area | Related Substances, individual peak % area (T = 3 months 25° C./60% RH, individual peaks, RRT): 0.14 % area (2×) and 0.78 % area and 0.15 % area (3×) and 0.48 % area and 0.35 % area and 0.22 % area and 0.54 % area and 0.25 % area and 0.57 % area and 0.77 % area and 0.13 % area and 0.16 % area and 1.03 % area and 1.37 % area | Related Substances, Total % area (T = 6 months 25° C./60% RH): 7.18 % area | Related Substances, individual peak % area (T = 6 months 25° C./60% RH, individual peaks, RRT): 0.12 % area and 0.86 % area and 0.14 % area (2×) and 0.52 % area and 0.64 % area and 0.20 % area and 0.71 % area (2×) and 0.56 % area and 0.10 % area and 0.15 % area and 1.01 % area and 1.32 % area | Related Substances, Total % area (T = 6 months 40° C./75% RH): 7.32 % area
